Values of other authors in US6506390B2, “Progestogen-anti-progestogen regimens” (Akzo Nobel, priority 1996, dated 2003).

How the values were obtained:
[1] = as an approximation
[2] = based on practically applied doses; for relative potency in progestogenic activity: levonorgestrel, desogestrel and 3-keto-desogestrel compared with each other

## C#C[C@]1(O)CC[C@H]2[C@@H]3CCc4cc(OC)ccc4[C@H]3CC[C@@]21C [mestranol, 17-α-ethinyl estradiol 3-methylether]
[1]
  amount equivalent in estrogenic activity to 1 mg of 17β-estradiol: ~0.030 mg

## C#C[C@]1(O)C=C[C@H]2[C@@H]3CCC4=CC(=O)CC[C@@H]4[C@H]3CC[C@@]21CC [Gestodene, gestodene]
[2]; progestogenic activity
  potency relative to levonorgestrel, desogestrel and 3-keto-desogestrel: approximately 1.5 times

## C#C[C@]1(O)CC[C@H]2[C@@H]3CCC4=CCCC[C@@H]4[C@H]3C(=C)C[C@@]21CC [desogestrel, 13-ethyl-11-methylene-18,19-di-nor-17α-pregn-4-en-20-yn-17-ol]
[2]
  relative potency in progestogenic activity: relatively equipotent

## C#C[C@]1(O)CC[C@H]2[C@@H]3CCC4=CC(=O)CC[C@@H]4[C@H]3C(=C)C[C@@]21CC [3-keto-desogestrel]
[2]
  relative potency in progestogenic activity: relatively equipotent

## C#CC1(O)CC[C@H]2[C@@H]3CCC4=CC(=O)CC[C@@H]4[C@H]3CC[C@@]21CC (some centres unmarked) [Norgestrel, norgestrel]
[2]; progestogenic activity
  potency relative to levonorgestrel: about one-half
